Assays:
[1] = tested on: liver; settings: classification of the substance (Cr+/Cr−); cited from earlier work
[2] = tested on: mRNA expressed from the genes (A) to (D) in rat liver; assay: Behavior of genes (mRNA expression level, oligo-DNA microarray) in rat liver after 28-day oral administration; format: in vivo; settings: mRNA vs vehicle control group; for Behavior of gene caused by administration of chemical substance, Gene No. 4846 / Behavior of gene caused by administration of chemical substance, Gene No. 2026 / Behavior of gene caused by administration of chemical substance, Gene No. 4218 / Behavior of gene caused by administration of chemical substance, Gene No. 6182 / Behavior of gene caused by administration of chemical substance, Gene No. 5600: gene group (A); for Behavior of gene caused by administration of chemical substance, Gene No. 4846: Unigene No. Rn.144554; for Behavior of gene caused by administration of chemical substance, Gene No. 2026 / Behavior of gene caused by administration of chemical substance, Gene No. 4218: Unigene No. Rn.167075; for Behavior of gene caused by administration of chemical substance, Gene No. 6182: Unigene No. Rn.5834; for Behavior of gene caused by administration of chemical substance, Gene No. 5600: Unigene No. Rn.9836; for Behavior of gene caused by administration of chemical substance, Gene No. 1494 / Behavior of gene caused by administration of chemical substance, Gene No. 2045 / Behavior of gene caused by administration of chemical substance, Gene No. 2203: gene group (B); for Behavior of gene caused by administration of chemical substance, Gene No. 1494: Unigene No. Rn.1430; for Behavior of gene caused by administration of chemical substance, Gene No. 2045: Unigene No. Rn.19329; for Behavior of gene caused by administration of chemical substance, Gene No. 2203: Unigene No. Rn.21240; for Behavior of gene caused by administration of chemical substance, Gene No. 533 / Behavior of gene caused by administration of chemical substance, Gene No. 725 / Behavior of gene caused by administration of chemical substance, Gene No. 1163 / Behavior of gene caused by administration of chemical substance, Gene No. 4973 / Behavior of gene caused by administration of chemical substance, Gene No. 4095 / Behavior of gene caused by administration of chemical substance, Gene No. 1334 / Behavior of gene caused by administration of chemical substance, Gene No. 6620 / Behavior of gene caused by administration of chemical substance, Gene No. 6303 / Behavior of gene caused by administration of chemical substance, Gene No. 5878 / Behavior of gene caused by administration of chemical substance, Gene No. 1131 / Behavior of gene caused by administration of chemical substance, Gene No. 1562 / Behavior of gene caused by administration of chemical substance, Gene No. 1741 / Behavior of gene caused by administration of chemical substance, Gene No. 893 / Behavior of gene caused by administration of chemical substance, Gene No. 6026 / Behavior of gene caused by administration of chemical substance, Gene No. 154 / Behavior of gene caused by administration of chemical substance, Gene No. 1993 / Behavior of gene caused by administration of chemical substance, Gene No. 813 / Behavior of gene caused by administration of chemical substance, Gene No. 2494 / Behavior of gene caused by administration of chemical substance, Gene No. 2546 / Behavior of gene caused by administration of chemical substance, Gene No. 3776 / Behavior of gene caused by administration of chemical substance, Gene No. 3929 / Behavior of gene caused by administration of chemical substance, Gene No. 1119 / Behavior of gene caused by administration of chemical substance, Gene No. 6742 / Behavior of gene caused by administration of chemical substance, Gene No. 5634: gene group (C); for Behavior of gene caused by administration of chemical substance, Gene No. 533: Unigene No. Rn.106184; for Behavior of gene caused by administration of chemical substance, Gene No. 725: Unigene No. Rn.108075; for Behavior of gene caused by administration of chemical substance, Gene No. 1163: Unigene No. Rn.11766; for Behavior of gene caused by administration of chemical substance, Gene No. 4973: Unigene No. Rn.118529; for Behavior of gene caused by administration of chemical substance, Gene No. 4095: Unigene No. Rn.119024; for Behavior of gene caused by administration of chemical substance, Gene No. 1334 / Behavior of gene caused by administration of chemical substance, Gene No. 6620: Unigene No. Rn.120914; for Behavior of gene caused by administration of chemical substance, Gene No. 6303: Unigene No. Rn.123063; for Behavior of gene caused by administration of chemical substance, Gene No. 5878: Unigene No. Rn.143213; for Behavior of gene caused by administration of chemical substance, Gene No. 1131: Unigene No. Rn.144946; for Behavior of gene caused by administration of chemical substance, Gene No. 1562: Unigene No. Rn.14744; for Behavior of gene caused by administration of chemical substance, Gene No. 1741: Unigene No. Rn.1647; for Behavior of gene caused by administration of chemical substance, Gene No. 893: Unigene No. Rn.164817; for Behavior of gene caused by administration of chemical substance, Gene No. 6026: Unigene No. Rn.167685; for Behavior of gene caused by administration of chemical substance, Gene No. 154: Unigene No. Rn.185941; for Behavior of gene caused by administration of chemical substance, Gene No. 1993: Unigene No. Rn.18728; for Behavior of gene caused by administration of chemical substance, Gene No. 813: Unigene No. Rn.201760; for Behavior of gene caused by administration of chemical substance, Gene No. 2494: Unigene No. Rn.23969; for Behavior of gene caused by administration of chemical substance, Gene No. 2546: Unigene No. Rn.24561; for Behavior of gene caused by administration of chemical substance, Gene No. 3776: Unigene No. Rn.43232; for Behavior of gene caused by administration of chemical substance, Gene No. 3929: Unigene No. Rn.4620; for Behavior of gene caused by administration of chemical substance, Gene No. 1119: Unigene No. Rn.9757; for Behavior of gene caused by administration of chemical substance, Gene No. 6742: Unigene No. Rn.9779; for Behavior of gene caused by administration of chemical substance, Gene No. 5634: Unigene No. Rn.9862; for Behavior of gene caused by administration of chemical substance, Gene No. 5726: gene group (D), Unigene No. Rn.9939
In short: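 Male F344 SPF rats, 5 weeks old, four per group, received carcinogens, non-carcinogens or solvent vehicle by oral gavage once daily for 28 days. Liver total RNA was then extracted. Changes of ≥1.5-fold or ≤1/1.5 versus vehicle control, in a consistent direction across carcinogens, counted as significant.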

[3] = tested on: rodent; settings: classification of the substance (C+/C−); cited from earlier work
[4] = classification of the substance (M+/M−); cited from earlier work

SMILES	Liver carcinogenicity [1]	Behavior of gene caused by administration of chemical substance, Gene No. 4846 [2]	Behavior of gene caused by administration of chemical substance, Gene No. 2026 [2]	Behavior of gene caused by administration of chemical substance, Gene No. 4218 [2]	Behavior of gene caused by administration of chemical substance, Gene No. 6182 [2]	Behavior of gene caused by administration of chemical substance, Gene No. 5600 [2]	Behavior of gene caused by administration of chemical substance, Gene No. 1494 [2]	Behavior of gene caused by administration of chemical substance, Gene No. 2045 [2]	Behavior of gene caused by administration of chemical substance, Gene No. 2203 [2]	Behavior of gene caused by administration of chemical substance, Gene No. 533 [2]	Behavior of gene caused by administration of chemical substance, Gene No. 725 [2]	Behavior of gene caused by administration of chemical substance, Gene No. 1163 [2]	Behavior of gene caused by administration of chemical substance, Gene No. 4973 [2]	Behavior of gene caused by administration of chemical substance, Gene No. 4095 [2]	Behavior of gene caused by administration of chemical substance, Gene No. 1334 [2]	Behavior of gene caused by administration of chemical substance, Gene No. 6620 [2]	Behavior of gene caused by administration of chemical substance, Gene No. 6303 [2]	Behavior of gene caused by administration of chemical substance, Gene No. 5878 [2]	Behavior of gene caused by administration of chemical substance, Gene No. 1131 [2]	Behavior of gene caused by administration of chemical substance, Gene No. 1562 [2]	further results
CCSCCC(N)C(=O)O (racemic) [TS070, D,L-Ethionine]	Cr+	−	−	−	−	−	+	−	+	−	+	−	−	−	−	−	−	−	−	−	Behavior of gene caused by administration of chemical substance, Gene No. 1741 [2]: −; Behavior of gene caused by administration of chemical substance, Gene No. 893 [2]: −; Behavior of gene caused by administration of chemical substance, Gene No. 6026 [2]: −; Behavior of gene caused by administration of chemical substance, Gene No. 154 [2]: −; Behavior of gene caused by administration of chemical substance, Gene No. 1993 [2]: −; Behavior of gene caused by administration of chemical substance, Gene No. 813 [2]: −; Behavior of gene caused by administration of chemical substance, Gene No. 2494 [2]: −; Behavior of gene caused by administration of chemical substance, Gene No. 2546 [2]: −; Behavior of gene caused by administration of chemical substance, Gene No. 3776 [2]: −; Behavior of gene caused by administration of chemical substance, Gene No. 3929 [2]: −; Behavior of gene caused by administration of chemical substance, Gene No. 1119 [2]: −; Behavior of gene caused by administration of chemical substance, Gene No. 6742 [2]: −; Behavior of gene caused by administration of chemical substance, Gene No. 5634 [2]: −; Behavior of gene caused by administration of chemical substance, Gene No. 5726 [2]: −; Carcinogenicity [3]: C+; Mutagenicity by Ames test [4]: M−
CCOC(=O)C(C)(C)Oc1ccc(Cl)cc1 [TS001, Clofibrate]	Cr+	−	+	−	+	−	+	+	+	+	+	+	+	+	−	−	−	−	−	−	Behavior of gene caused by administration of chemical substance, Gene No. 1741 [2]: −; Behavior of gene caused by administration of chemical substance, Gene No. 893 [2]: +; Behavior of gene caused by administration of chemical substance, Gene No. 6026 [2]: −; Behavior of gene caused by administration of chemical substance, Gene No. 154 [2]: −; Behavior of gene caused by administration of chemical substance, Gene No. 1993 [2]: −; Behavior of gene caused by administration of chemical substance, Gene No. 813 [2]: +; Behavior of gene caused by administration of chemical substance, Gene No. 2494 [2]: −; Behavior of gene caused by administration of chemical substance, Gene No. 2546 [2]: −; Behavior of gene caused by administration of chemical substance, Gene No. 3776 [2]: −; Behavior of gene caused by administration of chemical substance, Gene No. 3929 [2]: −; Behavior of gene caused by administration of chemical substance, Gene No. 1119 [2]: −; Behavior of gene caused by administration of chemical substance, Gene No. 6742 [2]: +; Behavior of gene caused by administration of chemical substance, Gene No. 5634 [2]: −; Behavior of gene caused by administration of chemical substance, Gene No. 5726 [2]: −; Carcinogenicity [3]: C+; Mutagenicity by Ames test [4]: M−
